Measurements published in patent publication US20050112059A1, “Enhancement of radiotherapy by an exogenous cardiac glycoside” (Phoenix Biotechnology, Inc., priority 2003, published 2005).

Key:
PC-3 cells [1] = test: Colony forming ability of PC-3 cells after oleandrin and graded γ-irradiation; format: cell-based, human
Procedure: The human prostate carcinoma cell line PC-3 was obtained from the American Type Culture Collection and maintained in RPMI 1640 medium supplemented with 10% fetal calf serum, 10,000 U/ml of penicillin-streptomycin, and 2 mM L-glutamine. Cells were grown as monolayers in 75-cm^2 flasks and maintained in a humidified 5% CO2/95% air atmosphere at 37.8° C.
[…] graded doses (2, 4 or 6 Gy) of γ-rays using a ^137Cs source (3.7 Gy/min) and assayed for colony forming ability by replating them in specified numbers into 100-mm dishes containing drug-free media. After 12 days of incubation, cells were stained with 0.5% crystal violet in absolute ethanol, and colonies with more than 50 cells were counted. The average survival levels were fit by least squares regression using a linear quadratic model. Survival curves were constructed with normalized values for the cytotoxicity induced by oleandrin alone. Oleandrin by itself reduced plating efficiency from the 95% control value to 21%.
The untreated control samples are represented by the open circles and the oleandrin treated samples are represented by the filled circles. Values shown are the means±SE for three independent experiments. The enhancement factor at the cell survival fraction of 0.1 was 1.32.

PC-3 cells [2] = test: Effect of duration of oleandrin exposure on radiosensitivity (colony survival, 3 Gy); format: cell-based, human
Procedure: The magnitude of radiosensitization depended on duration of exposure of cells to oleandrin prior to radiation. PC-3 cells were incubated in the presence of 0.05 μg/ml oleandrin for 1-24 hours. After oleandrin treatment, cells were irradiated with 3 Gy radiation and plated as in Example 1. Colonies were counted after 12 days and percent surviving fractions were plotted. […] Cell survival after 3 Gy radiation only was 50% compared to 30% after 3 Gy radiation plus 0.05 μg/ml oleandrin. Values shown are means±SE for three independent experiments. The average survival levels were fit by least squares regression using a linear quadratic model.

PC-3 cells [3] = test: Apoptosis by TUNEL assay and flow cytometry; format: cell-based, human
Procedure: PC-3 cells were incubated with 0.05 μg/ml oleandrin for 24 hours, irradiated at 2 Gy, or both. The control cells were untreated. The medium containing oleandrin was removed, fresh medium was added, and 24 hours later the apoptotic index was determined.
Apoptosis was determined by staining and flow cytometry analysis. The terminal deoxynucleotidyltransferase (“TdT”) dUTP nick end labeling (“TUNEL”) assay to identify the DNA fragmentation (APO-DIRECT kit, Pharmingen, San Diego, Calif.) was performed according to the manufacturer's instructions. Briefly, cells (2×10^6) were fixed in 1% paraformaldehyde and washed in PBS. Cells were suspended in 70% ethanol and stored at −20° C. until use. Re-suspended cells were stained in a solution containing TdT and FITC-dUTP and incubated overnight at room temperature in the dark. They were then rinsed and re-suspended in 0.5 ml propidium iodide/RNase A solution and analyzed by flow cytometry.

PC-3 cells [4] = test: Hoechst 33258 staining of apoptotic cells, fluorescent microscope; format: cell-based, human; conditions: oleandrin plus radiation versus any other treated or control population
From the text: In addition, the control cells and the experimental cells were stained with a fluorescent dye, Hoechst 33258, that binds to fragmented DNA. The PC-3 cells were observed under a fluorescent microscope.

caspase-3 = test: Caspase-3 activation by western blotting; format: cell-based, human
Procedure: To determine whether caspase-3 activation was involved in the oleandrin-induced enhancement of PC-3 cell radioresponse, cells were treated with 5 Gy or 0.05 μg/ml oleandrin or a combination of both treatments for 24 hours. Cells were assayed for caspase-3 activation 24 hours after treatment using western blotting. cells were lysed in a buffer containing 50 mM Tris-HCl (pH 8), 450 mM NaCl, 1% triton X-100, 5 mM EDTA, 1% (v/v) of protease inhibitor cocktail, and 1% (v/v) phosphatase inhibitor cocktails I and II (Sigma, St. Louis, Mo.). Protein ([…] per lane) was separated by sodium dodecyl sulfate-polyacrylamide gel electrophoresis (“SDS-PAGE”) and transferred to a polyvinylidene difluoride (“PVDF”) membrane (Bio-Rad Laboratories, Hercules, Calif.). The membrane was blocked by 5% non-fat dry milk in Tris-buffered saline and 0.1% Tween-20 (“TBS-T”) and before incubation with a designated primary antibody (Pharmingen, San Diego, Calif.). After washing the membrane with TBS-T, it was incubated in secondary antibody and the immunoreaction was visualized using an ECL western blotting kit (Amersham Corp., Arlington Heights, Ill.).

PC-3 cells [5] = test: Clonogenic cell survival with caspase-3 inhibitor, oleandrin and radiation; format: cell-based, human; conditions: for Survival of cells (%) following radiation of 2 Gy / Survival of cells (%) following radiation of 6 Gy / Survival of cells (%) following radiation of O Gy: oleandrin 0.05 μg/ml 24 hours, ZDEVD-FMK 100 μM added 2 hours before oleandrin; for Survival of cells (%) following radiation of 2 Gy: control 74.6 ± 3.4; for Survival of cells (%) following radiation of 6 Gy: control 7.8 ± 0.6; for Survival of cells (%) following radiation of O Gy: no radiation, percent control, mean±SE
Procedure: PC-3 cells were incubated with 0.05 μg/ml oleandrin for 24 hours before being irradiated with 2 or 6 Gy. […] Clonogenic cell survival was then determined. Colonies were counted and the survival of cells (percent control) was calculated. Data are presented as mean±SE from three experiments.

human tumor cell lines = conditions: cited from earlier work
murine tumor cell lines = conditions: cited from earlier work
NF-kB = conditions: cited from earlier work
[6] = system: A549 human lung adenocarcinoma cells; conditions: cited from earlier work
[7] = system: normal human lung fibroblasts; conditions: cited from earlier work
[8] = system: human tumor cells including squamous cell carcinoma and melanoma; conditions: squamous cell carcinoma and melanoma among types; cited from earlier work

Molecule: CO[C@H]1C[C@H](O[C@H]2CC[C@@]3(C)[C@H](CC[C@@H]4[C@@H]3CC[C@]3(C)[C@@H](C5=CC(=O)OC5)[C@@H](OC(C)=O)C[C@]43O)C2)O[C@@H](C)[C@@H]1O [Oleandrin, oleandrin]
- cytotoxicity by itself (PC-3 cells [1]; oleandrin 0.025 μg/ml): non-cytotoxic
- influence on radiosensitization (PC-3 cells [1]; oleandrin 0.025 μg/ml): no significant influence
- enhancement factor at the cell survival fraction of 0.1 (PC-3 cells [1]; oleandrin 0.05 μg/ml 24 hours, then 2, 4 or 6 Gy γ-rays): 1.32
- plating efficiency (PC-3 cells [1]; oleandrin 0.05 μg/ml for 24 hours, by itself (no radiation), control value 95%): 21%
- radiosensitizing effect versus duration of exposure (PC-3 cells [2]; 0.05 μg/ml oleandrin 1-24 hours, 3 Gy): increased as the duration of exposure to oleandrin increased up to 24 hours
- cell survival (PC-3 cells [2]; 3 Gy radiation plus 0.05 μg/ml oleandrin, exposure 1 hour, 3 Gy only 50%): 30%
- percentage of apoptotic cells (PC-3 cells [3]; 0.05 μg/ml oleandrin 24 hours alone, measured 24 hours later, control 2.1±0.4): 63.5±6.1%
- percentage of apoptotic cells (PC-3 cells [3]; 0.05 μg/ml oleandrin 24 hours plus 2 Gy, 2 Gy alone 8.2±3.4%): 85.8±5.3%
- combination effect on apoptosis versus individual treatments (PC-3 cells [3]; oleandrin 0.05 μg/ml plus 2 Gy): more than the additive effects
- apoptotic cells observed (Hoechst 33258) (PC-3 cells [4]): More apoptotic cells
- activation of caspase-3 (caspase-3; 0.05 μg/ml oleandrin alone, 24 hours, assayed 24 hours after treatment): effective
- level of caspase-3 activation (caspase-3; 0.05 μg/ml oleandrin combined with 5 Gy): higher
- Survival of cells (%) following radiation of 2 Gy (PC-3 cells [5]): 55.5 ± 1.9%
- Survival of cells (%) following radiation of 6 Gy (PC-3 cells [5]): 3.1 ± 0.8%
- Survival of cells (%) following radiation of O Gy (PC-3 cells [5]): 88.9 ± 2.9%
- induction of apoptosis (human tumor cell lines): induces apoptosis
- induction of apoptosis (murine tumor cell lines): not in murine tumor cell lines
- activation of NF-kB (NF-kB): inhibits activation

Molecule: C[C@@H]1O[C@@H](O[C@H]2C[C@@H](O)[C@]3(CO)[C@H]4[C@H](O)C[C@]5(C)[C@@H](C6=CC(=O)OC6)CC[C@]5(O)[C@@H]4CC[C@]3(O)C2)[C@H](O)[C@H](O)[C@H]1O [Ouabain, ouabain]
- in vitro radiosensitivity [6]: enhance in vitro radiosensitivity
- modification of radioresponse [7]: ineffective
- radiosensitization [8]: radiosensitize

Molecule: ZDEVD-FMK [Z-DEVD-FMK]
- Survival of cells (%) following radiation of 2 Gy (PC-3 cells [5]): 77.8 ± 3.2%
- Survival of cells (%) following radiation of 6 Gy (PC-3 cells [5]): 8.6 ± 2.1%
- effect on oleandrin-induced enhancement of radiation response (PC-3 cells [5]; ZDEVD-FMK 100 μM with oleandrin 0.05 μg/ml): abolished
- Survival of cells (%) following radiation of O Gy (PC-3 cells [5]): 97.4 ± 1.7%
